Experimental data: the supplement of paper PMC10307832

Tests used:
Assay in all cases: relative viability (nuclei count vs DMSO), 5 days (fraction); higher = more cells survive
[1] = compound: CCN(CCO)CCCC(C)Nc1ccnc2cc(Cl)ccc12 [Hydroxychloroquine] + C[C@@H](Oc1cc(-c2cnn(C3CCNCC3)c2)cnc1N)c1c(Cl)ccc(F)c1Cl [Crizotinib] (partner 1 µM)
Procedure, shortened: (§1)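 Relative viability equals treated-well nuclei counts divided by vehicle-well nuclei counts. Counts came from 4× images of lung cancer cell lines grown in 1536-well plates for 5 days after pin-tool dosing on the day after seeding. Dosing used one drug alone or a fixed anchor-drug dose plus five library-drug doses (not always all listed) in √10 steps, and values are medians of duplicate plates.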

[2] = compound: CCN(CCO)CCCC(C)Nc1ccnc2cc(Cl)ccc12 [Hydroxychloroquine] + Nc1nc2[nH]cc(CCc3ccc(C(=O)N[C@@H](CCC(=O)O)C(=O)O)cc3)c2c(=O)[nH]1 [Pemetrexed] (partner 0.2 µM)
Procedure, shortened: as §1

[3] = compound: CCN(CCO)CCCC(C)Nc1ccnc2cc(Cl)ccc12 [Hydroxychloroquine] + Cc1nc(Nc2ncc(C(=O)Nc3c(C)cccc3Cl)s2)cc(N2CCN(CCO)CC2)n1 [Dasatinib] (partner 0.075 µM)
Procedure, shortened: as §1

[4] = compound: CCN(CCO)CCCC(C)Nc1ccnc2cc(Cl)ccc12 [Hydroxychloroquine] + CS(=O)(=O)CCNCc1ccc(-c2ccc3ncnc(Nc4ccc(OCc5cccc(F)c5)c(Cl)c4)c3c2)o1 [Lapatinib] (partner 2 µM)
Procedure, shortened: as §1

Cell Line	relative viability ([1]; first compound 0.5 µM)	relative viability ([1]; first compound 1.581 µM)	relative viability ([1]; first compound 5 µM)	relative viability ([1]; first compound 15.81 µM)	relative viability ([1]; first compound 50 µM)	relative viability ([2]; first compound 0.5 µM)	relative viability ([2]; first compound 1.581 µM)	relative viability ([2]; first compound 5 µM)	relative viability ([2]; first compound 15.81 µM)	relative viability ([2]; first compound 50 µM)	relative viability ([3]; first compound 0.5 µM)	relative viability ([3]; first compound 1.581 µM)	relative viability ([3]; first compound 5 µM)	relative viability ([3]; first compound 15.81 µM)	relative viability ([3]; first compound 50 µM)	relative viability ([4]; first compound 0.5 µM)	relative viability ([4]; first compound 1.581 µM)	relative viability ([4]; first compound 5 µM)	relative viability ([4]; first compound 15.81 µM)	relative viability ([4]; first compound 50 µM)
NCI-H2126	1.12	1.06	1.11	0.984	1.13	0.709	0.636	0.666	0.653	0.716	0.724	0.564	0.596	0.622	0.615	0.74	0.649	0.761	0.797	0.816
NCI-H520	0.894	0.826	0.86	0.752	0.993	0.76	0.729	0.596	0.657	0.798	0.196	0.223	0.213	0.184	0.196	0.934	0.898	0.857	0.958	0.978
SW 1573	0.782	0.839	0.872	0.76	0.753	0.892	0.686	0.794	0.86	0.758	0.465	0.379	0.506	0.414	0.676	0.98	1.01	1.15	1.07	0.997
NCI-H322M	0.996	0.922	0.894	0.927	1.02	0.639	0.609	0.601	0.608	0.592	0.256	0.248	0.258	0.253	0.263	0.557	0.642	0.554	0.619	0.634
EKVX	1.01	0.919	0.814	0.907	0.963	0.385	0.394	0.32	0.385	0.423	0.512	0.502	0.495	0.535	0.337	0.246	0.181	0.224	0.168	0.199
NCI-H1734	0.652	0.559	0.741	0.582	0.716	0.46	0.398	0.408	0.427	0.427	0.399	0.374	0.506	0.452	0.504	1.13	0.99	0.992	1.05	0.99
NCI-H596	0.918	1.04	1.05	1.05	1.01	0.547	0.481	0.45	0.479	0.489	0.56	0.587	0.59	0.655	0.591	0.969	0.995	1.04	1.05	1
EPLC-272H	0.8	0.983	0.92	0.86	1.23	–	0.331	0.325	0.341	0.352	0.342	0.441	0.333	0.335	0.347	0.988	0.879	0.77	0.877	1.06
